Tests used:
HIPK2 = target: T1, HIPK2 (Homo sapiens, UniProt Q9H2X6); test: DSF; type: binding
T1 construct: purchased in-house DSF panel (SGC Frankfurt)
Experimental: (§1) Measurements were performed in duplicates.

EPHA4 = target: T2, EPHA4 (Homo sapiens, UniProt P54764); test: DSF; type: binding
T2 construct: purchased in-house DSF panel (SGC Frankfurt)
T2 sequence (P54764 606-890): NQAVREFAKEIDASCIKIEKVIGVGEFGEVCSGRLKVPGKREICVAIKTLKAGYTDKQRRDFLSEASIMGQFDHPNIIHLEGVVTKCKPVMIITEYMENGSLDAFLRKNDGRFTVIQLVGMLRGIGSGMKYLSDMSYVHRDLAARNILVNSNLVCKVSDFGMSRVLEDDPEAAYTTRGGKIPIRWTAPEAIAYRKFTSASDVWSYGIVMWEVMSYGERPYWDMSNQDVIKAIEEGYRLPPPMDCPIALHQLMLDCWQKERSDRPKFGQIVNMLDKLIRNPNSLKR
Experimental: as §1

ULK1 = target: T3, ULK1 (Homo sapiens, UniProt O75385); test: DSF; type: binding
T3 construct: purchased in-house DSF panel (SGC Frankfurt)
T3 sequence (O75385 1-283): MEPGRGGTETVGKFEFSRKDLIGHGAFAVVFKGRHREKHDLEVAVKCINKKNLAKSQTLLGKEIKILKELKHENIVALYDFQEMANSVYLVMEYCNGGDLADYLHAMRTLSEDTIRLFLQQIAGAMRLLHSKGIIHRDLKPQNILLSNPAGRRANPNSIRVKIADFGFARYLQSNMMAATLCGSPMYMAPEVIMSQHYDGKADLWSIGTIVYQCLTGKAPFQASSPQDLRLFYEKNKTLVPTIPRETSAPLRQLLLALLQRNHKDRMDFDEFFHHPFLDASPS
Experimental: as §1

NEK2 = target: T4, NEK2 (Homo sapiens, UniProt P51955); test: DSF; type: binding
T4 construct: purchased in-house DSF panel (SGC Frankfurt)
T4 sequence (P51955 1-271): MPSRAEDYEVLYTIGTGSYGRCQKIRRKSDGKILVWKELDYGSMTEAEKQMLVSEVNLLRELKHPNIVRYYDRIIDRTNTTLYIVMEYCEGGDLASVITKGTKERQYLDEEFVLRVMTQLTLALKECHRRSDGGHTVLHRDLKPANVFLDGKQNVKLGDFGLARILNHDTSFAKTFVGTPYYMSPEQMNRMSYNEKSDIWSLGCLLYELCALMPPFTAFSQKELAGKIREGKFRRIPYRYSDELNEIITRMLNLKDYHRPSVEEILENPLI
Experimental: as §1

NEK1 = target: T5, NEK1 (Homo sapiens, UniProt Q96PY6); test: DSF; type: binding
T5 construct: purchased in-house DSF panel (SGC Frankfurt)
T5 sequence (Q96PY6 1-328): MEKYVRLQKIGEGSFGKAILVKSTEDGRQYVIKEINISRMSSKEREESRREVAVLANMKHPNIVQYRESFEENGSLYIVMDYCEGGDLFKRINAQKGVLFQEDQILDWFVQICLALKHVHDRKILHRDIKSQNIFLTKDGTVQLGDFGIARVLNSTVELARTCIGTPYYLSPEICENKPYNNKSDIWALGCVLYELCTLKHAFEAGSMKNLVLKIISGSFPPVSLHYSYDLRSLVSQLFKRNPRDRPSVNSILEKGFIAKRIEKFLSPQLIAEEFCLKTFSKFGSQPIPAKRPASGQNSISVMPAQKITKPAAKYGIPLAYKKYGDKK
Experimental: (§2) Recombinant protein kinase domains with a concentration of 2 μM were mixed with a 10 μM compound solution in DMSO, 20 mM HEPES, pH 7.5, and 500 mM NaCl. SYPRO Orange (5000×, Invitrogen) was added as a fluorescence probe (1 µl per mL). Subsequently, temperature-dependent protein unfolding profiles were measured, using the QuantStudio™ 5 realtime PCR machine (Thermo Fisher, Waltham, MA, USA). […] The temperature was raised with a step rate of 3 °C per minute. Data points were analyzed with the internal software (Thermal Shift SoftwareTM Version 1.4, Thermo Fisher) using the Boltzmann equation to determine the inflection point of the transition curve [56]. Differences in melting temperature are given as ΔTm values in °C. Measurements were performed in duplicates.

BRAF = target: T6, BRAF (Homo sapiens, UniProt P15056); test: DSF; type: binding
T6 construct: purchased in-house DSF panel (SGC Frankfurt)
T6 sequence (P15056 444-723): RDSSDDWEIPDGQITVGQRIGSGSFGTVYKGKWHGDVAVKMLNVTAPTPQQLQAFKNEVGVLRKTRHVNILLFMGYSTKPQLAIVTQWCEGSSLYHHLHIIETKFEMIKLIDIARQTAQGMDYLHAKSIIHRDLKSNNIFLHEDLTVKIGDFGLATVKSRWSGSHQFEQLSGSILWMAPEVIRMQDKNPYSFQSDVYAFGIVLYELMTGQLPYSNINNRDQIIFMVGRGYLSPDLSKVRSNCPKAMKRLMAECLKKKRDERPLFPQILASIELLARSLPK
Experimental: as §2

MST3 = target: T7, MST3 (Homo sapiens, UniProt Q9Y6E0); test: DSF; type: binding
T7 construct: purchased in-house DSF panel (SGC Frankfurt)
T7 sequence (Q9Y6E0 4-301): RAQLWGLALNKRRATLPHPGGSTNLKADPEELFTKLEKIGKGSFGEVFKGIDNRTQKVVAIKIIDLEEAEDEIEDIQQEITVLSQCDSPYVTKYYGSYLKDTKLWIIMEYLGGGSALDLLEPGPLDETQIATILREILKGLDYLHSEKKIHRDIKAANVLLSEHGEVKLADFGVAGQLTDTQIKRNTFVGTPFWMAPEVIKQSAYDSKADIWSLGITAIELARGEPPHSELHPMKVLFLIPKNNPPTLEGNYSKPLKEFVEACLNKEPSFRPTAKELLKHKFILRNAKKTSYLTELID
Experimental: as §2

MAP2K6 = target: T8, MAP2K6 (Homo sapiens, UniProt P52564); test: DSF; type: binding
T8 construct: purchased in-house DSF panel (SGC Frankfurt)
T8 sequence (P52564 53-314): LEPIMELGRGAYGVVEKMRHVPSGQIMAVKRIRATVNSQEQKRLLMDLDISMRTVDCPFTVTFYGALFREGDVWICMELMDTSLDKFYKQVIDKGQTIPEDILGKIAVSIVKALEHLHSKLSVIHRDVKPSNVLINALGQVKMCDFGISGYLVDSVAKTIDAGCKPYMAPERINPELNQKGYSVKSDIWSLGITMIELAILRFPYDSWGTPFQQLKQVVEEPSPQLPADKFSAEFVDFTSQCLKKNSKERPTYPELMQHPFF
Experimental: as §2

BRD4 = target: T9, BRD4 (Homo sapiens, UniProt O60885); test: DSF; type: binding
T9 construct: purchased in-house DSF panel (SGC Frankfurt)

MAPK10 = target: T10, MAPK10 (Homo sapiens, UniProt P53779); test: DSF; type: binding;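 note: compound tested at 10 µM with 2 µM protein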
T10 construct: purchased in-house DSF panel (SGC Frankfurt)
T10 sequence (P53779 whole entry): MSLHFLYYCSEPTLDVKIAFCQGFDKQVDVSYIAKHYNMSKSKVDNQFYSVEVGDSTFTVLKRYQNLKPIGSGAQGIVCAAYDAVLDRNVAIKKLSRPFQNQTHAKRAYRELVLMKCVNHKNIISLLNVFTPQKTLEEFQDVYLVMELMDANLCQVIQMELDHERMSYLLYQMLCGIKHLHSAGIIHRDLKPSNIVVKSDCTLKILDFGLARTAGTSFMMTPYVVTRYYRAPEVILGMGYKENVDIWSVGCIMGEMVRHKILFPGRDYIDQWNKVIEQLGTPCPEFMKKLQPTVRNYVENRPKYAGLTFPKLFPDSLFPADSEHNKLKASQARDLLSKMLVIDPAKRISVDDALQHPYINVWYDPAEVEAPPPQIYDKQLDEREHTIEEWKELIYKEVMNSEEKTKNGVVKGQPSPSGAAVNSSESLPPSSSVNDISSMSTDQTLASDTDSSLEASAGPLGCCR
Experimental: as §2

CK2A2 = target: T11, CK2A2 (Homo sapiens, UniProt P19784); test: DSF; type: binding;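 note: compound tested at 10 µM with 2 µM protein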
T11 construct: purchased in-house DSF panel (SGC Frankfurt)
T11 sequence (P19784 whole entry): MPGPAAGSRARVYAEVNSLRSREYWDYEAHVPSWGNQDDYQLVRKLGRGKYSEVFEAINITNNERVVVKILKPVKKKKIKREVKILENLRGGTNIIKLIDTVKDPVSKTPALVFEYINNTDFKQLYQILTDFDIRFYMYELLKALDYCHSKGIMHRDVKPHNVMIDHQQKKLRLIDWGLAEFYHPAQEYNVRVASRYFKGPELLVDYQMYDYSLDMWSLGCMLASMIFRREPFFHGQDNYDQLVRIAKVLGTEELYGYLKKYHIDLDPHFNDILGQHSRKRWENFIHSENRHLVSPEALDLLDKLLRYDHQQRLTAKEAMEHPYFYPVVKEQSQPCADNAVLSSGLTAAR
Experimental: as §2

GPRK5 = target: T12, GPRK5 (Homo sapiens, UniProt P34947); test: DSF; type: binding
T12 construct: purchased in-house DSF panel (SGC Frankfurt)
T12 sequence (P34947 whole entry): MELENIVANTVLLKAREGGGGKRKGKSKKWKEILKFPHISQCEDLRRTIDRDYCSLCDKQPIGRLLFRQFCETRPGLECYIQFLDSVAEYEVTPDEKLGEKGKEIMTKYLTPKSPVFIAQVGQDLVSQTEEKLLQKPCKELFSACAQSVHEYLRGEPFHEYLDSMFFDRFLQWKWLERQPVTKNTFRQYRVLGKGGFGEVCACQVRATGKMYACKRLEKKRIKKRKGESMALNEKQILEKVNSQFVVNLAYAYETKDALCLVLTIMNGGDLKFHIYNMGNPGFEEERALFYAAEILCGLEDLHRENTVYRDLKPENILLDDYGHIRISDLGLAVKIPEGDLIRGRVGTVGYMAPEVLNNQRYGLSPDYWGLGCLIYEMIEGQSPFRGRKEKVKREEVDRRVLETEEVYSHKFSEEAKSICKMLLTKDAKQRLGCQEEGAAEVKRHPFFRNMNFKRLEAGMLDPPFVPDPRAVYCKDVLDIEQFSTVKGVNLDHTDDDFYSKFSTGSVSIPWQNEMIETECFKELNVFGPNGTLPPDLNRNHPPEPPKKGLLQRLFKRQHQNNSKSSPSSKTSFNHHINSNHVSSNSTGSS
Experimental: as §2

DYRK1A = target: T13, DYRK1A (Homo sapiens, UniProt Q13627); test: DSF; type: binding
T13 construct: purchased in-house DSF panel (SGC Frankfurt)
Experimental: as §2

CLK3 = target: T14, CLK3 (Homo sapiens, UniProt P49761); test: DSF; type: binding
T14 construct: purchased in-house DSF panel (SGC Frankfurt)
T14 sequence (P49761 127-484): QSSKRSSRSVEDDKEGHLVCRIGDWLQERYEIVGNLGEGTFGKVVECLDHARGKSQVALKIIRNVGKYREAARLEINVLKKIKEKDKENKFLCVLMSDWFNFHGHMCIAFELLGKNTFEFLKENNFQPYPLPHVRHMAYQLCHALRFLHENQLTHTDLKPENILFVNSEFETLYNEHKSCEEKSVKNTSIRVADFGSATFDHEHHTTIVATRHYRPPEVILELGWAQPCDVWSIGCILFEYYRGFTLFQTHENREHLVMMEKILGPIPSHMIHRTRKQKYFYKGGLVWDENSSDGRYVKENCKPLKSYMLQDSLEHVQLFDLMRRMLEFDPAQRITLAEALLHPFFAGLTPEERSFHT
Experimental: as §2

CDK16 and GSK3 = test: proteome-wide CETSA MS; type: cell-based; conditions: K562 cells, 30 µM, 60 min
Experimental: To verify whether the substances also lead to stabilization of proteins in the cellular system, proteome-wide CETSA experiments were performed. Therefore, lead structure 1 and some compounds from the second series (21b, 21d, 21e, 21h, and 21i) were selected for this study (Figure 6, Figure S1). While the statistical significance is plotted on the Y-axis, the relative protein amount is shown on the X-axis. […] Based on excellent proteome-wide selectivity identifying CDK16 and GSK3 as the most prominently stabilized kinases, 21d and 21i were selected for further investigations. […] We therefore decided to proceed with a CDK16-specific cellular assay.
Compressed CETSA MS assays, also known as PISA (Proteome Integral Stability Alteration assay), were performed as previously described by Chernobrovkin et. al., with some minor changes. K562 cells were obtained from ATCC. K562 cells were mixed with an equal volume of compound solution, final concentartion of 30 µM, in a buffer (20 mM HEPES, 138 mM NaCl, 5 mM KCl, 2 mM CaCl2, 1 mM MgCl2, pH 7.4). One percent and DMSO was used as a control. Cells were incubated at +37 °C for 60 min. The cell suspension was split into 12 aliquots which were heated at a different temperature between 44 and 66 °C for 3 min. After the heating, the cells were lysed through freeze–thawing them 3 times and the lysed aliquots were pooled together. Cell debris and aggregates were removed through centrifugation (20 min at 30.000× g).

CLK1 = target: T15, CLK1 (Homo sapiens, UniProt P49759); test: DSF; type: binding;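 note: compound tested at 10 µM with 2 µM protein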
T15 construct: purchased in-house DSF panel (SGC Frankfurt)
T15 sequence (P49759 148-484): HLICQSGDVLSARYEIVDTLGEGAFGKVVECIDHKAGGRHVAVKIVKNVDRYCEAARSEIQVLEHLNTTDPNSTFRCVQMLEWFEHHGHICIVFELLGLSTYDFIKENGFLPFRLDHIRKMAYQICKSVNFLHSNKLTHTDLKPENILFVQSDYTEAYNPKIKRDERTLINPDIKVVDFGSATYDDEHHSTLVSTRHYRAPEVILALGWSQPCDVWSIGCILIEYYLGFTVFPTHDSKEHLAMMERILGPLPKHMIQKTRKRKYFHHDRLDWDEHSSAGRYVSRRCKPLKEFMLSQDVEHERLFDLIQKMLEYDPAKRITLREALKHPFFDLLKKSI
Experimental: as §2

CAMK2D = target: T16, CAMK2D (Homo sapiens, UniProt Q13557); test: DSF; type: binding;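 note: compound tested at 10 µM with 2 µM protein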
T16 construct: purchased in-house DSF panel (SGC Frankfurt)
T16 sequence (Q13557 11-309): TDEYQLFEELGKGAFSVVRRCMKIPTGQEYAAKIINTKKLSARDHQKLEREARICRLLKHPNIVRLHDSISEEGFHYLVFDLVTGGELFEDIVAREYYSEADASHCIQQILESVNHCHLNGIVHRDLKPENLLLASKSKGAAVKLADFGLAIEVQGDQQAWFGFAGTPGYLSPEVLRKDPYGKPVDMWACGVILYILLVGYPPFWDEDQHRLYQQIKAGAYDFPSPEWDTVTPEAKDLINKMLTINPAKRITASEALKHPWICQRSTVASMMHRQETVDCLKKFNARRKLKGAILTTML
Experimental: as §2

T1 sequence (Q9H2X6 199-527): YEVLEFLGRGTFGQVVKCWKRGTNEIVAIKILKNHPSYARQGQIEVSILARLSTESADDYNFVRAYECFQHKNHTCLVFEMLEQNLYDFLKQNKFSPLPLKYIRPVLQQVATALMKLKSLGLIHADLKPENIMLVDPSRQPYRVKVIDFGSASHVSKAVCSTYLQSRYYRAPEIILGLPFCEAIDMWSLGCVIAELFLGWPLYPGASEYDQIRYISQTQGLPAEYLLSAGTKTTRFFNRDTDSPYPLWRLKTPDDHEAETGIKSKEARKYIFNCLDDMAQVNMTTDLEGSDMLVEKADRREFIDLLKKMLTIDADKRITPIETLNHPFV

SMILES	ΔTm HIPK2 (HIPK2)	ΔTm EPHA4 (EPHA4)	ΔTm ULK1 (ULK1)	ΔTm NEK2 (NEK2)	ΔTm NEK1 (NEK1)	ΔTm BRAF (BRAF)	ΔTm MST3 (MST3)	ΔTm MAP2K6 (MAP2K6)	ΔTm BRD4 (BRD4)	ΔTm MAPK10 (MAPK10)	ΔTm CK2A2 (CK2A2)	ΔTm GPRK5 (GPRK5)	ΔTm DYRK1A (DYRK1A)	ΔTm CLK3 (CLK3)	stabilization in CETSA MS (CDK16 and GSK3)	ΔTm CLK1 (CLK1)	ΔTm CAMK2D (CAMK2D)
CN[C@@H]1C[C@H]2O[C@@](C)([C@@H]1OC)n1c3ccccc3c3c4c(c5c6ccccc6n2c5c31)C(=O)NC4 [staurosporine, reference compound]	4.4 °C	6.2 °C	11.3 °C	3.3 °C													
COC(=O)c1cc(Nc2ccnc(NCCOCCNC(=O)OC(C)(C)C)n2)[nH]n1 [21d, methyl 5-((2-((2-(2-((tert-butoxycarbonyl)amino)ethoxy)ethyl)amino)pyrimidin-4-yl)amino)-1H-pyrazole-3-carboxylate]			2.3 °C		0.1 °C	0.9 °C	-0.3 °C	1.4 °C	0.7 °C	2.9 °C	1.8 °C	0.2 °C	1.2 °C	1.1 °C	stabilization of CDK16 and GSK3	1.8 °C	0.8 °C
N#CCc1ccc(Nc2nccc(Nc3cc(C4CC4)[nH]n3)n2)cc1 [compound 1, reference compound]			15.5 °C		1.1 °C	4.6 °C	9.3 °C	10.4 °C	1.3 °C	7.2 °C	8.5 °C	5.2 °C	8.2 °C	11.3 °C	stabilization of CDK16 and GSK3	12.2 °C	4.5 °C
CC(C)(C)OC(=O)Nc1ccc(CNc2nccc(Nc3cc(C(=O)OC(C)(C)C)[nH]n3)n2)cc1 [43d, tert-butyl 3-((2-((4-((tert-butoxycarbonyl)amino)benzyl)amino)pyrimidin-4-yl)amino)-1H-pyrazole-5-carboxylate]	0.1 °C	0.0 °C		2.0 °C	0.1 °C	0.7 °C	-0.3 °C	3.0 °C	-1.5 °C	-1.6 °C	1.1 °C	-1.4 °C	1.8 °C	0.0 °C		-0.5 °C	-0.1 °C
COC(=O)c1cc(Nc2ccnc(NCc3ccc(NC(=O)OC(C)(C)C)cc3)n2)[nH]n1 [21i, methyl 5-((2-((4-((tert-butoxycarbonyl)amino)benzyl)amino)pyrimidin-4-yl)amino)-1H-pyrazole-3-carboxylate]			2.7 °C		0.4 °C	1.0 °C	0.1 °C	5.4 °C	1.0 °C	1.8 °C	1.3 °C	0.7 °C	3.4 °C	0.4 °C	stabilization of CDK16 and GSK3	1.3 °C	0.6 °C
CC(C)OC(=O)c1cc(Nc2ccnc(NCc3ccc(NC(=O)OC(C)(C)C)cc3)n2)n[nH]1 [42d, isopropyl 3-((2-((4-((tert-butoxycarbonyl)amino)benzyl)amino)pyrimidin-4-yl)amino)-1H-pyrazole-5-carboxylate]	-0.2 °C	-0.1 °C		-1.4 °C	0.2 °C	0.4 °C	0.8 °C	5.0 °C	-2.1 °C	-3.0 °C	1.1 °C	-1.3 °C	0.0 °C	-0.4 °C		0.0 °C	-0.4 °C
